What was measured:
[1] = biological target: T1, PPARα (Homo sapiens, UniProt Q07869); assay: Hela cell/luciferase reporter gene method, PPARα agonist activity; format: cell-based; details: for EC50: Hela cells, pPPRE3-TK-Luciferase reporter, 24 hrs incubation, read-out: agonistic activity on PPAα (EC50); for ratio of PPARγ/PPARα activated (EC50 ratio): under the experimental conditions of the present disclosure
T1 construct: expressed in transfected cells; host or cells: Hela cells
T1 sequence (Q07869 1-468): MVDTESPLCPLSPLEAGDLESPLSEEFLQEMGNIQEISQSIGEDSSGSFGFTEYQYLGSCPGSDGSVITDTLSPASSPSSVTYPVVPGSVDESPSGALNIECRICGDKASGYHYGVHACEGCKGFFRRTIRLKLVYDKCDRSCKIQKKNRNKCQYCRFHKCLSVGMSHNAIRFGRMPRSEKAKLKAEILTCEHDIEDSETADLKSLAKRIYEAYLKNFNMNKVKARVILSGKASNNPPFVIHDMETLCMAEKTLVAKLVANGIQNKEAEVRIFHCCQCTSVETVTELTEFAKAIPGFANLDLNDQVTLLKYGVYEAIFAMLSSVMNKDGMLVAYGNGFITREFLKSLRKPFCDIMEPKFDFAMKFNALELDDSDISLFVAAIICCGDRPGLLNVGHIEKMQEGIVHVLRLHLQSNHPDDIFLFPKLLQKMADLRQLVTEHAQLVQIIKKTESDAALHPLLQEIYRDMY
Description: (§1) This example measures the biological activity of a PPAR agonist using the Hela cell/luciferase reporter gene method.
(§2) The target plasmids PCMV PPARα (Ampicillin+), PCMV PPARγ (Ampicillin+), PCMV PPARδ (Ampicillin+), and pPPRE3-TK-Luciferase (Ampicillin+) were introduced into DH5a competent cells by heat shock treatment, respectively. After being incubated for 1 hour at 37° C. with shaking (180 rpm), the cells were inoculated on LB agar solid medium containing antibiotic Ampicillin, and invertedly cultured at 37° C. for 12-16 hours. Then the monoclonal colony cultured on the medium was taken and inoculated into LB liquid medium for expanded culture. The desired plasmid was extracted from the resulting bacterial solution with a Plasmid Midi Kit (Qiagen; #12143). The plasmid obtained by centrifugation was suspended in TE buffer, and the plasmid concentration was measured and the mixture was stored at −20° C. Hela cells in the exponential phase were seeded in 6-well plates (8-10^5 cells/well), and after 6-8 hours of culture, the cells were transfected using Lipofectamine® 3000 Transfection Reagent (Invitrogen; #L3000015). A plasmid containing a PPAR binding site (peroxisome proliferator response element, PPRE) and a firefly luciferase gene (pPPRE3-TK-Luciferase) and PPAR expression vector were co-transfected into a Hela cell with a total amount of plasmid DNA of 2.5 ug (the mass ratio of each PPAR expression vector is pPPRE:PPARα=6:1, pPPRE:PPARδ=8:1, and pPPRE:PPARγ=2:1) to construct a drug screening cell model for PPAR agonists. PPAR was binded to the ligand and then binded to the peroxisome proliferator response element (PPRE), thereby initiating downstream firefly luciferase expression and its expression intensity was directly proportional to the degree of PPAR activation. The cells after 24 hours transfection were prepared into a cell suspension with a cell concentration of […] by a complete culture solution, and seeded into a 96-well plate with 100 ul per well. After overnight culture, the medium was changed to a medium containing 1% FBS. 10 mM candidate compound stock (1000×) were 4-fold diluted in DMSO for 8 points, then supplemented with medium containing 1% FBS to a final concentration of 50 uM (5×) by addition of 25 μl of 5× compound diluent to each well in different concentration gradients and incubated under 37° C., 5% CO2 incubator for 24 hrs. The 96-well plate was taken out and 30 μl of Bright-Glo™ Luciferase Assay System (Promega #E2620) was added to each well. The Luciferase luminescence intensity was measured by a SynergyH1 full-function microplate detector. The obtained data was used to calculate EC50 using GraphPad Prism 5.0 software to determine the biological activity of the compound.
(§3) The agonistic activity of the compounds synthesized in Examples 1-41 on PPAR is represented by EC50 (see Table 1). EC50 refers to the drug concentration at which the compound has a 50% increase in the agonistic activity of the measured PPAR. The compound numbers in Table 1 correspond to the compound numbers in Examples 1-41.

[2] = biological target: T2, PPARγ (Homo sapiens, UniProt P37231); assay: Hela cell/luciferase reporter gene method, PPARγ agonist activity; format: cell-based; details: for EC50: Hela cells, pPPRE3-TK-Luciferase reporter, 24 hrs incubation, read-out: agonistic activity on PPARγ (EC50)
T2 construct: expressed in transfected cells; host or cells: Hela cells
T2 sequence (P37231 1-505): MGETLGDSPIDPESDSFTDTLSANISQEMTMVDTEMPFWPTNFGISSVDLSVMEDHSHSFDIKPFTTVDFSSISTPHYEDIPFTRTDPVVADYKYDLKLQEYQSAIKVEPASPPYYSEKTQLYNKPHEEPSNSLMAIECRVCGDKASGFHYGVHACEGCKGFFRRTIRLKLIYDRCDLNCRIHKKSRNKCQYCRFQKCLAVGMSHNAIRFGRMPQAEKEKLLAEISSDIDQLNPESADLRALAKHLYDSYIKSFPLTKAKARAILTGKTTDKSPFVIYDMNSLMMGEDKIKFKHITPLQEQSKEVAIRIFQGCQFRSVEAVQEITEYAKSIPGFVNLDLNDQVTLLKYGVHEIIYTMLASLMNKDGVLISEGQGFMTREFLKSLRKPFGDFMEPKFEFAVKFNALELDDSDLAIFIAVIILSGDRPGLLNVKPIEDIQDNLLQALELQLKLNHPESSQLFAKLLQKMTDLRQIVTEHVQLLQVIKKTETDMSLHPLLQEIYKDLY
Description: as §1, §2, §3

| SMILES | EC50 [1] | EC50 [2] | ratio of PPARγ/PPARα activated (EC50 ratio) [1] | activation of PPARγ compared with Elafibranor (in words) [2] | increased activity for activation of PPARα compared with Elafibranor [1] |
| --- | --- | --- | --- | --- | --- |
| CSc1ccc(C(=O)/C=C/c2cc(C)c(OC(C)(C)C(=O)O)c(C)c2)c2occc12 [Compound 5, (E)-2-(2,6-dimethyl-4-(3-(4-(methylthio)benzofuran-7-yl)-3-oxoprop-1-en-1-yl)phenoxy)-2-methylpropanoic acid] | 24.4 nM | 26.2 nM |  |  |  |
| CSc1ccc2cc(C(=O)/C=C/c3cc(C)c(OC(C)(C)C(=O)O)c(C)c3)sc2c1 [Compound 81, (E)-2-(2,6-dimethyl-4-(3-(6-(methylthio)benzo[b]thiophen-2-yl)-3-oxoprop-1-en-1-yl)phenoxy)-2-methylpropanoic acid] | 24.9 nM | 94.1 nM |  |  |  |
| CSc1ccc2c(C)c(C(=O)/C=C/c3cc(Cl)c(OC(C)(C)C(=O)O)c(Cl)c3)oc2c1 [Compound 103, (E)-2-(2,6-dichloro-4-(3-(3-methyl-6-(methylthio)benzofuran-2-yl)-3-oxoprop-1-en-1-yl)phenoxy)-2-methylpropanoic acid] | 8.7 nM | 788 nM | 90.59 | significantly reduced |  |
| CCSc1ccc(C(=O)/C=C/c2cc(C)c(OC(C)(C)C(=O)O)c(C)c2)c2occc12 [Compound 6, (E)-2-(4-(3-(4-(ethylthio)benzofuran-7-yl)-3-oxoprop-1-en-1-yl)-2,6-dimethylphenoxy)-2-methylpropanoic acid] | 9.6 nM | 62.6 nM |  |  |  |
| CCSc1ccc2c(C)c(C(=O)/C=C/c3cc(C)c(OC(C)(C)C(=O)O)c(C)c3)oc2c1 [Compound 74, (E)-2-(4-(3-(6-(ethylthio)-3-methylbenzofuran-2-yl)-3-oxoprop-1-en-1-yl)-2,6-dimethylphenoxy)-2-methylpropanoic acid] | 13.9 nM | 29.3 nM |  |  |  |
| CSc1cccc2oc(C(=O)/C=C/c3cc(C)c(OC(C)(C)C(=O)O)c(C)c3)cc12 [Compound 60, (E)-2-(2,6-dimethyl-4-(3-(4-(methylthio)benzofuran-2-yl)-3-oxoprop-1-en-1-yl)phenoxy)-2-methylpropanoic acid] | 46.7 nM | 92.3 nM |  |  |  |
| COc1ccc2cc(C(=O)/C=C/c3cc(C)c(OC(C)(C)C(=O)O)c(C)c3)oc2c1 [Compound 43, (E)-2-(4-(3-(6-methoxybenzofuran-2-yl)-3-oxoprop-1-en-1-yl)-2,6-dimethylphenoxy)-2-methylpropanoic acid] | 39.8 nM | 116 nM |  |  |  |
| CSc1ccc(C(=O)/C=C/c2cc(C)c(OC(C)(C)C(=O)O)c(C)c2)c2ccoc12 [Compound 27, (E)-2-(2,6-dimethyl-4-(3-(7-(methylthio)benzofuran-4-yl)-3-oxoprop-1-en-1-yl)phenoxy)-2-methylpropanoic acid] | 59.1 nM | 124 nM |  |  |  |

The remaining compounds from weak to strong by EC50 [1], led by results:

| EC50 [1] | EC50 [2] | ratio of PPARγ/PPARα activated (EC50 ratio) [1] | activation of PPARγ compared with Elafibranor (in words) [2] | increased activity for activation of PPARα compared with Elafibranor [1] | SMILES |
| --- | --- | --- | --- | --- | --- |
| 75.1 nM | 31.6 nM |  |  |  | Cc1cc(/C=C/C(=O)c2ccc3c(c2)CCS3)cc(C)c1OC(C)(C)C(=O)O [Compound 36, (E)-2-(4-(3-(2,3-dihydrobenzo[b]thiophen-5-yl)-3-oxoprop-1-en-1-yl)-2,6-dimethylphenoxy)-2-methylpropanoic acid] |
| 19.2 nM | 95.5 nM |  |  |  | CCc1c(C(=O)/C=C/c2cc(C)c(OC(C)(C)C(=O)O)c(C)c2)oc2cc(SC)ccc12 [Compound 63, (E)-2-(4-(3-(3-ethyl-6-(methylthio)benzofuran-2-yl)-3-oxoprop-1-en-1-yl)-2,6-dimethylphenoxy)-2-methylpropanoic acid] |
| 16.6 nM | 132 nM | 7.98 | weak activation | 1 fold | CSc1ccc2c(C)c(C(=O)/C=C/c3cc(C)c(OC(C)(C)C(=O)O)c(C)c3)oc2c1 [Compound 62, (E)-2-(2,6-dimethyl-4-(3-(3-methyl-6-(methylthio)benzofuran-2-yl)-3-oxoprop-1-en-1-yl)phenoxy)-2-methylpropanoic acid] |
| 4 nM | 35.3 nM | 8.83 | little effect | 7 fold | CSc1ccc2cc(C(=O)/C=C/c3cc(C)c(OC(C)(C)C(=O)O)c(C)c3)oc2c1 [Compound 51, (E)-2-(2,6-dimethyl-4-(3-(6-(methylthio)benzofuran-2-yl)-3-oxoprop-1-en-1-yl)phenoxy)-2-methylpropanoic acid] |
| 2 nM | 475 nM | 237.55 | significantly reduced |  | CSc1ccc2cc(C(=O)/C=C/c3cc(Cl)c(OC(C)(C)C(=O)O)c(Cl)c3)oc2c1 [Compound 100, (E)-2-(2,6-dichloro-4-(3-(6-(methylthio)benzofuran-2-yl)-3-oxoprop-1-en-1-yl)phenoxy)-2-methylpropanoic acid] |
